Test results from article PMC8248988, “A signal capture and proofreading mechanism for the KDEL-receptor explains selectivity and dynamic range in ER retrieval” (eLife, 2021).

Tested on: endogenous KDEL receptor in COS-7 cells
Assay: ER retrieval assay, endogenous KDEL receptor redistribution
Format: cell-based, African green monkey
From the text: Figure 1. ER retrieval signal abundance and affinity are not correlated. (a) Sequence logos for ER resident proteins with C-terminal KDEL retrieval signals and variants thereof calculated using frequency or protein abundance ([Itzhak et al., 2017]; [Itzhak et al., 2016]). (b) Combined cellular concentrations of ER resident proteins with canonical KDEL, RDEL, and HDEL retrieval sequences in HeLa cells and mouse brain. (c) Competition binding assays for [^3H]-TAEHDEL and unlabelled TAEKDEL, TAERDEL, and TAEHDEL to the KDEL receptor. IC50 values for the competing peptides were used to calculate the apparent KDwith the Cheng-Prusoff equation ([Cheng and Prusoff, 1973]). (d) Endogenous KDEL receptor redistribution was measured in COS-7 cells in the absence (-ligand) or presence of K/R/H/A/DDEL (mScarlet-xDEL^sec). TGN46 was used as a Golgi marker. Scale bar is 10 µm. (e) The mean difference for K/R/H/A/DDEL comparisons against the shared no ligand control are shown as Cummings estimation plots. The individual data points for the fraction of KDEL receptor fluorescence in the Golgi are plotted on the upper axes with sample sizes and p values. Figure 1—source data 1. Source data for the ligand-induced KDELR receptor retrieval assays in Figure 1e. Figure 1—figure supplement 1. […] Endogenous ER chaperone secretion was measured by western blotting after challenge with different retrieval signals, and plotted as a bar graph showing mean ± SEM (n = 3). […] (a) Distribution of human KDELR1 and (b) KDELR2 was measured in COS-7 cells in the absence (-ligand) or presence of K/R/H/A/DDEL retrieval signals (K/R/H/A/DDEL^sec). […] The fraction of KDEL receptor localised to the Golgi was measured before (no ligand) and after challenge with different retrieval signals as indicated. […]
To create KDELR1-GFP and KDELR2-GFP, the reading frames for Homo sapiens KDELR1 (Uniprot: P24390) and KDELR2 (Uniprot: P33947) were cloned into the pEF5/FRT low level mammalian expression vector with a C-terminal 20 amino acid linker made up of 5 copies of Gly-Ser-Ser-Ser followed by GFP. […]

ADEL [pcDNA3.1 hGHss-mScarlet-H. sapiens BiP639-654K651A (ADEL^SEC), secreted mScarlet fusion with human BiP C-terminus, ADEL signal]
localisation of the mScarlet ligand (in words) (COS-7 cells): predominantly Golgi and punctate localisation consistent with secretion
endogenous KDEL receptor redistribution from Golgi to ER (in words) (COS-7 cells expressing mScarlet-xDEL^sec): little effect on the Golgi-ER distribution of the receptor
